System: mice with CCl4-induced chronic liver injury
Assay: CCl4-induced chronic liver injury in mice
Format: in vivo
Details: 6 weeks
Experimental: SPF-grade male C57BL/6 mice were randomly divided into 5 groups, 12 mice in each group. The groups were a control group, a model group, a silibinin group (positive control group), a TFFCL low-dose group, and a TFFCL high-dose group. In addition to the control group, mice in the model group, positive control group, TFFCL low-dose group, and TFFCL high-dose group were intraperitoneally injected with 20% CCl4 (CCl4: olive oil=1:4, 2 mL/kg); mice in the control group were intraperitoneally injected with an equal amount of olive oil solution. Each group was injected twice a week for 6 weeks. The silibinin and TFFCL were separately suspended in 0.5% CMC-Na solution. The silibinin group, TFFCL-L group (low-dose), and TFFCL-H group (high-dose) were administered silibinin 100 mg/kg, TFFCL 20 mg/kg, and TFFCL 40 mg/kg by gavage, respectively; while the control group and the model group were intragastrically administered the same amount of 0.5% CMC-Na solution. Each group was given continuous intragastric administration once a day for 6 weeks. During the animal feeding, the body weight of mice was monitored and recorded weekly; 16 h after the last administration in the 6th week, blood was collected from the orbit of the mice, the liver and spleen of the mice were weighed and photographed, and wet weights of the liver and spleen were recorded. The organ index was calculated (organ index=organ mass/body mass×100%).

## COc1cc(C2Oc3cc([C@H]4Oc5cc(O)cc(O)c5C(=O)[C@@H]4O)ccc3OC2CO)ccc1O (some centres unmarked) [Positive group, silibinin]
Silibinin 100 mg/kg by gavage once a day
  Liver index: 4.42 ± 0.30 %
Silibinin 100 mg/kg
  Spleen index: 0.35 ± 0.02%
  liver tissue CAT: 262.23 ± 73.45 U/mg
  liver tissue GSH-PX: 7.84 ± 3.75 U/mg
  liver tissue MDA: 1.12 ± 0.28 nmol/mg
  liver tissue SOD: 9.33 ± 2.47 U/mg
  serum ALT: 80.58 ± 18.26 U/L
  serum AST: 226.58 ± 45.39 U/L
  serum IL-1β: 152.13 ± 30.49 pg/mL
  serum IL-6: 81.40 ± 15.12 pg/mL
  serum TNF-α: 252.32 ± 34.16 pg/mL

— patent US20240226217A9, “METHOD FOR EXTRACTING AND PURIFYING TOTAL FLAVONOIDS FROM CARTHAMUS TINCTORIUS L. LEAF (TFFCL), AND USE THEREOF” (Shaanxi University of Chinese Medicine, priority 2022, published 2024)
